Experimental data published in article PMC5969746 (PLoS ONE, 2018).

Assays:
[1] = molecular target: T1, scyllo-inositol dehydrogenase with L-glucose dehydrogenase activity (Pl-scyllo-IDH) (Paracoccus laeviglucosivorans, UniProt K7ZP76); test: X-ray crystal structure, […] Å; assay type: binding; details: crystal soaked with 100 mM myo-inositol and 25 mM NAD+; active site
T1 construct: gene lgdA; lgdA in pET21a(+), expressed in E. coli BL21(DE3), Ni-NTA purified; homo-tetramer, active site includes H318 of the adjacent subunit
T1 sequence (K7ZP76 1-372): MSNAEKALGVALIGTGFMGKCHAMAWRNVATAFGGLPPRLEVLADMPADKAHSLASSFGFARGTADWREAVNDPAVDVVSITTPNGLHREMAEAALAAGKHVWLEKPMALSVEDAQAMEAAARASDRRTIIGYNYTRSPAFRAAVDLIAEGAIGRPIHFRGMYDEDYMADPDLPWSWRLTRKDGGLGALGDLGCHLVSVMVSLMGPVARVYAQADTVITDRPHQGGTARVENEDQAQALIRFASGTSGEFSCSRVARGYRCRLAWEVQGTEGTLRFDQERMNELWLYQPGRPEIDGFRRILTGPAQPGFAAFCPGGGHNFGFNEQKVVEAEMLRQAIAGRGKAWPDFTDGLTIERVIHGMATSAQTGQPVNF

[2] = molecular target: T1, scyllo-inositol dehydrogenase with L-glucose dehydrogenase activity (Pl-scyllo-IDH); test: X-ray crystal structure, […] Å; assay type: binding
[3] = molecular target: T1, scyllo-inositol dehydrogenase with L-glucose dehydrogenase activity (Pl-scyllo-IDH); test: X-ray crystal structure, […] Å; assay type: binding; remark: listed apart in the source
purified protein = substrate: O[C@H]1[C@H](O)[C@@H](O)[C@H](O)[C@@H](O)[C@@H]1O; test: purified protein; assay type: biochemical, Paracoccus laeviglucosivorans; details: 20 mM NAD+, 100 mM Tris-HCl, pH 9.0
[4] = molecular target: the molecule itself; test: crystal structure; homo-tetramer in the asymmetric unit, space group P212121; crystals grown at 20°C by hanging-drop vapor diffusion, 0.1 M sodium acetate pH 4.8-5.4, 12-35% PEG 3350; apo form and complexes with NAD+/NADH and sugars

O[C@H]1[C@H](O)[C@@H](O)[C@H](O)[C@@H](O)[C@H]1O [myo-inositol]
X-ray crystal structure, 2.3 Å [1]: complex structures of Pl-scyllo-IDH with scyllo-inosose and myo-inositol were also determined

NC(=O)c1ccc[n+]([C@@H]2O[C@H](COP(=O)(O)OP(=O)(O)OC[C@H]3O[C@@H](n4cnc5c(N)ncnc54)[C@H](O)[C@@H]3O)[C@@H](O)[C@H]2O)c1 [NAD^+]
X-ray crystal structure, 2.0 Å ([2]; complex with scyllo-inosose (also with myo-inositol, 5YA8, 2.3 Å), 25 mM NAD+ soak): myo-inositol/NAD^+ and scyllo-inosose/NAD^+ complexes have been deposited

O=C1O[C@@H](CO)[C@H](O)[C@@H](O)[C@@H]1O [L-glucono-1,5-lactone]
X-ray crystal structure, 1.8 Å ([3]; crystal soaked with 100 mM L-glucose and 25 mM NAD+, active site, NADH complex): bound molecule in the active site was in fact the reaction product of L-glucose oxidation

NC(=O)C1=CN([C@@H]2O[C@H](COP(=O)(O)OP(=O)(O)OC[C@H]3O[C@@H](n4cnc5c(N)ncnc54)[C@H](O)[C@@H]3O)[C@@H](O)[C@H]2O)C=CC1 [NADH]
X-ray crystal structure, 1.8 Å ([3]; complex with L-glucono-1,5-lactone, crystal soaked with NAD+, assigned as NADH): the bound cofactor molecule might therefore be NADH

O=C1[C@@H](O)[C@H](O)[C@@H](O)[C@H](O)[C@H]1O [scyllo-inosose]
X-ray crystal structure, 2.0 Å ([2]; crystal soaked with 100 mM scyllo-inosose and 25 mM NAD+, active site): the carbonyl oxygen located between K106 and H195 formed hydrogen bonds

B1: scyllo-inositol dehydrogenase with L-glucose dehydrogenase activity (Pl-scyllo-IDH) (Paracoccus laeviglucosivorans; R178A) (protein)
chain: MSNAEKALGVALIGTGFMGKCHAMAWRNVATAFGGLPPRLEVLADMPADKAHSLASSFGFARGTADWREAVNDPAVDVVSITTPNGLHREMAEAALAAGKHVWLEKPMALSVEDAQAMEAAARASDRRTIIGYNYTRSPAFRAAVDLIAEGAIGRPIHFRGMYDEDYMADPDLPWSWALTRKDGGLGALGDLGCHLVSVMVSLMGPVARVYAQADTVITDRPHQGGTARVENEDQAQALIRFASGTSGEFSCSRVARGYRCRLAWEVQGTEGTLRFDQERMNELWLYQPGRPEIDGFRRILTGPAQPGFAAFCPGGGHNFGFNEQKVVEAEMLRQAIAGRGKAWPDFTDGLTIERVIHGMATSAQTGQPVNF
notes: lgdA in pET21a(+), expressed in E. coli BL21(DE3), Ni-NTA purified; homo-tetramer, active site includes H318 of the adjacent subunit
Km (purified protein): 40.6 ± 7.2 mM
kcat (purified protein): 8.1 ± 0.65 s⁻¹
kcat/Km (purified protein): 200 M⁻¹ s⁻¹

B2: Paracoccus laeviglucosivorans scyllo-inositol dehydrogenase (enzyme)
chain: MSNAEKALGVALIGTGFMGKCHAMAWRNVATAFGGLPPRLEVLADMPADKAHSLASSFGFARGTADWREAVNDPAVDVVSITTPNGLHREMAEAALAAGKHVWLEKPMALSVEDAQAMEAAARASDRRTIIGYNYTRSPAFRAAVDLIAEGAIGRPIHFRGMYDEDYMADPDLPWSWRLTRKDGGLGALGDLGCHLVSVMVSLMGPVARVYAQADTVITDRPHQGGTARVENEDQAQALIRFASGTSGEFSCSRVARGYRCRLAWEVQGTEGTLRFDQERMNELWLYQPGRPEIDGFRRILTGPAQPGFAAFCPGGGHNFGFNEQKVVEAEMLRQAIAGRGKAWPDFTDGLTIERVIHGMATSAQTGQPVNF
notes: Protein encoded by the lgdA gene of Paracoccus laeviglucosivorans (scyllo-inositol dehydrogenase, GFO/IDH/MocA family); A selenomethionine-substituted form (E. coli B834(DE3)) was used only for phasing; Crystals were also soaked with NAD+ and L-glucose, myo-inositol or scyllo-inosose; also called Pl-scyllo-IDH; LgdA; source: E. coli BL21(DE3), pET21a(+), purified (Ni-NTA agarose, dialysis)
stoichiometry N [4]: 4
